Laboratory results: patent US20250262201A1, “COMPOUNDS AND METHODS USEFUL FOR STABILIZING PHENYLALANINE HYDROXYLASE MUTATIONS” (Agios Pharmaceuticals, Inc., priority 2022, published 2025)

Target: T1, human PAH with the R408W mutation (Homo sapiens, UniProt P00439, R408W)
T1 construct: expressed in transfected cells
T1 sequence (P00439 1-452 R408W): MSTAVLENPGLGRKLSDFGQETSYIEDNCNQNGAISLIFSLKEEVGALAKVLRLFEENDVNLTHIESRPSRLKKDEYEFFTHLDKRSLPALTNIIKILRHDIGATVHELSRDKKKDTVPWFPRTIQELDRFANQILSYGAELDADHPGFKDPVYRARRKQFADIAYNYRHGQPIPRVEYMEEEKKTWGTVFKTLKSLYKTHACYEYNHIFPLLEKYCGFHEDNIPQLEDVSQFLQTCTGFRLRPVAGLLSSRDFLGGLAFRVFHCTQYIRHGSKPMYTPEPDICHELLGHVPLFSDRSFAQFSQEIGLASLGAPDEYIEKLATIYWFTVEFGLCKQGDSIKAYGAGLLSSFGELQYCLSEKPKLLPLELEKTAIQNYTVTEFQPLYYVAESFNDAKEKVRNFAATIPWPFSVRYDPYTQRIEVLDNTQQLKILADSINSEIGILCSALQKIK
Assay: Cell Based Phenylalanine Flux Assay
Parameters: scale not given here
Conditions: A375 R408W cells, 24 hrs with compound, then 20 μM sepiapterin and 800 μM 13C9,15N-Phenylalanine for 4 hours; 13C-Tyrosine by LC-MS; average where tested multiple times

AC50	Structure (SMILES)
E, E	CC(C)(O)c1nc(C(F)(F)F)c(C(=O)N2CCc3[nH]cnc3C2c2ncc3ccccc3n2)o1 (stereo not shown)
E, E	COCCNc1nnc(C(=O)N2CC(C)c3[nH]cnc3C2c2cc3ccccc3cn2)o1 [(4S, 7R) diastereomer of 5-[4-(isoquinolin-3-yl)-7-methyl-1H]
E, E	Cn1ccc(-c2nc(C(F)F)c(C(=O)N3CCc4[nH]cnc4C3c3ncc4ccccc4n3)o2)n1 (stereo not shown)

Same assay, conditions: A375 R408W cells, 24 hrs with compound, then 20 μM sepiapterin and 800 μM 13C9,15N-Phenylalanine for 4 hours; 13C-Tyrosine by LC-MS; average where tested multiple times; read-out: AC50

AC50	Structure (SMILES)
1000 to 5000 nM	O=C(c1ocnc1-c1ccccn1)N1CCc2[nH]cnc2C1c1cn2ccccc2n1 (stereo not shown)
1000 to 5000 nM	CC1CN(C(=O)c2nnc(N3CCC(F)CC3)o2)C(c2cc3ccccc3cn2)c2nc[nH]c21 (stereo not shown) [listing 1 of 2 here]
1000 to 5000 nM	CC1CN(C(=O)c2nnc(N3CCC(F)CC3)o2)C(c2cc3ccccc3cn2)c2nc[nH]c21 (stereo not shown) [listing 2 of 2 here]
1000 to 5000 nM	O=C(c1nnc(C2CC2)o1)N1CCc2[nH]cnc2C1c1cn2ccccc2n1 (stereo not shown)
1000 to 5000 nM	Cc1nnc(C(=O)N2CC(C)c3[nH]cnc3C2c2cc3ccccc3cn2)o1 (stereo not shown)
> 5000 nM	COCc1ncc(C(=O)N2CCc3[nH]cnc3C2c2cn3ccccc3n2)o1 (stereo not shown)
1000 to 5000 nM	CC(C)(O)c1cc(C(=O)N2CCc3[nH]cnc3[C@H]2c2cc3ccccc3cn2)no1
1000 to 5000 nM	CC1CN(C(=O)c2ocnc2C(F)(F)F)C(c2cc3ccccc3cn2)c2nc[nH]c21 (stereo not shown)
1000 to 5000 nM	O=C(C1CC1(F)F)N1CCc2[nH]cnc2C1c1ccc2ccccc2n1 (stereo not shown)

Structure (SMILES)	AC50
CC(C)(O)c1ccc2c(C(=O)N3CCc4[nH]cnc4[C@H]3c3cc4ccccc4cn3)cnn2c1 (single isomer, unassigned)	1000 to 5000 nM

Same assay, conditions: A375 cells expressing human R408W PAH; 24 hrs compound incubation; 13C-Tyrosine by LC-MS; average where tested multiple times; read-out: AC50

AC50	Structure (SMILES)
500 to 1000 nM	CC(C)(C)c1ncc(C(=O)N2CCc3[nH]cnc3[C@H]2c2cn3ccccc3n2)o1 [Example 250, (R)-(2-(tert-butyl)oxazol-5-yl)(4-(imidazo[1,2-a]pyridin-2-yl)-6,7-dihydro-1H-imidazo[4,5-c]pyridin-5(4H)-yl)methanone]
< 500 nM	O=C(c1oc(-c2ccccn2)nc1C(F)(F)F)N1CCc2[nH]cnc2[C@H]1c1cn2ccccc2n1 [Example 256, (R)-(4-(imidazo[1,2-a]pyridin-2-yl)-6,7-dihydro-1H-imidazo[4,5-c]pyridin-5(4H)-yl)(2-(pyridin-2-yl)-4-(trifluoromethyl)oxazol-5-yl)methanone]
> 5000 nM	C[C@H]1CN(C(=O)c2nnc(-c3ccccn3)o2)[C@@H](c2cc3ccccc3cn2)c2nc[nH]c21 (single isomer, unassigned) [Example 386]
1000 to 5000 nM	O=C(c1cn(-c2ccccn2)nc1Cl)N1CCc2[nH]cnc2C1c1ccc2ccccc2n1 (stereo in doubt) [Example 109, (R)-(3-chloro-1-(pyridin-2-yl)-1H-pyrazol-4-yl)(4-(quinolin-2-yl)-6,7-dihydro-1H-imidazo[4,5-c]pyridin-5(4H)-yl)methanone]
1000 to 5000 nM	CC(C)(F)c1ncc(C(=O)N2CCc3[nH]cnc3[C@@H]2c2cc3ccccc3cn2)s1 [Example 333, (S)-(2-(2-fluoropropan-2-yl)thiazol-5-yl)(4-(isoquinolin-3-yl)-6,7-dihydro-1H-imidazo[4,5-c]pyridin-5(4H)-yl)methanone]
500 to 1000 nM	Cn1cnc(-c2nnc(C(=O)N3CCc4[nH]cnc4[C@H]3c3ncc4ccccc4n3)o2)c1 [Example 197, (S)-(5-(1-methyl-1H-imidazol-4-yl)-1,3,4-oxadiazol-2-yl)(4-(quinazolin-2-yl)-6,7-dihydro-1H-imidazo[4,5-c]pyridin-5(4H)-yl)methanone]
< 500 nM	C[C@H]1CN(C(=O)c2oc(-c3ccccn3)nc2C2CC2)[C@H](c2cc3ccccc3cn2)c2nc[nH]c21 [Example 407, (4-cyclopropyl-2-(pyridin-2-yl)oxazol-5-yl)((4R,7S)-4-(isoquinolin-3-yl)-7-methyl-6,7-dihydro-1H-imidazo[4,5-c]pyridin-5(4H)-yl)methanone]
< 500 nM	Cn1cc(C(=O)N2CCc3[nH]cnc3C2c2ccc3ccccc3n2)c(C(F)F)n1 (stereo in doubt) [Example 83, (R)-(3-(difluoromethyl)-1-methyl-1H-pyrazol-4-yl)(4-(quinolin-2-yl)-6,7-dihydro-1H-imidazo[4,5-c]pyridin-5(4H)-yl)methanone]
< 500 nM	O=C(c1oc(-c2ccccn2)nc1C(F)F)N1CCc2[nH]cnc2C1c1ccc2ccccc2n1 (stereo in doubt) [Example 65, (R)-(4-(difluoromethyl)-2-(pyridin-2-yl)oxazol-5-yl)(4-(quinolin-2-yl)-6,7-dihydro-1H-imidazo[4,5-c]pyridin-5(4H)-yl)methanone]
< 500 nM	O=C(c1cnn2cc(N3CCOCC3)ccc12)N1CCc2[nH]cnc2[C@H]1c1cc2ccccc2cn1 [Example 458, (R)-(4-(isoquinolin-3-yl)-6,7-dihydro-1H-imidazo[4,5-c]pyridin-5(4H)-yl)(6-morpholinopyrazolo[1,5-a]pyridin-3-yl)methanone]
500 to 1000 nM	Nc1cc(C(=O)N2CCc3[nH]cnc3C2c2ccc3ccccc3n2)n(C(F)F)n1 (stereo in doubt) [Example 267, (R)-(3-amino-1-(difluoromethyl)-1H-pyrazol-5-yl)(4-(quinolin-2-yl)-6,7-dihydro-1H-imidazo[4,5-c]pyridin-5(4H)-yl)methanone]
1000 to 5000 nM	O=C(c1ocnc1C(F)(F)F)N1CCc2[nH]cnc2C1c1ccc2ccccc2n1 (stereo in doubt) [Example 38, (S)-(4-(quinolin-2-yl)-6,7-dihydro-1H-imidazo[4,5-c]pyridin-5(4H)-yl)(4-(trifluoromethyl)oxazol-5-yl)methanone]
< 500 nM	Cn1nc(C(F)F)nc1C(=O)N1CCc2[nH]cnc2[C@H]1c1cc2ccccc2cn1 [Example 423, (R)-(3-(difluoromethyl)-1-methyl-1H-1,2,4-triazol-5-yl)(4-(isoquinolin-3-yl)-6,7-dihydro-1H-imidazo[4,5-c]pyridin-5(4H)-yl)methanone]
< 500 nM	O=C(c1ccnn1-c1ccccn1)N1CCc2[nH]cnc2C1c1ccc2ccccc2n1 (stereo in doubt) [Example 261, (R)-(1-(pyridin-2-yl)-1H-pyrazol-5-yl)(4-(quinolin-2-yl)-6,7-dihydro-1H-imidazo[4,5-c]pyridin-5(4H)-yl)methanone]
< 500 nM	O=C(c1nnc(-c2ncccc2F)o1)N1CCc2[nH]cnc2[C@H]1c1cc2ccccc2cn1 [Example 437, (R)-(5-(3-fluoropyridin-2-yl)-1,3,4-oxadiazol-2-yl)(4-(isoquinolin-3-yl)-6,7-dihydro-1H-imidazo[4,5-c]pyridin-5(4H)-yl)methanone]
> 5000 nM	O=C(c1cnc(-c2ccccn2)s1)N1CCc2[nH]cnc2[C@@H]1c1cc2ccccc2cn1 [Example 301, (S)-(4-(isoquinolin-3-yl)-6,7-dihydro-1H-imidazo[4,5-c]pyridin-5(4H)-yl)(2-(pyridin-2-yl)thiazol-5-yl)methanone]
500 to 1000 nM	O=C(c1nnc(-c2ccc(F)cc2F)o1)N1CCc2[nH]cnc2C1c1ccc2ccccc2n1 (stereo in doubt) [Example 75, (R)-(5-(2,4-difluorophenyl)-1,3,4-oxadiazol-2-yl)(4-(quinolin-2-yl)-6,7-dihydro-1H-imidazo[4,5-c]pyridin-5(4H)-yl)methanone]
< 500 nM	CN(C)CCc1ccc2c(C(=O)N3CCc4[nH]cnc4[C@H]3c3cc4ccccc4cn3)cnn2c1 [Example 468, (R)-(6-(2-(dimethylamino)ethyl)pyrazolo[1,5-a]pyridin-3-yl)(4-(isoquinolin-3-yl)-6,7-dihydro-1H-imidazo[4,5-c]pyridin-5(4H)-yl)methanone]
1000 to 5000 nM	O=C(c1cnc(-c2ccccn2)s1)N1CCc2[nH]cnc2[C@H]1c1ccc2ccccc2c1 [Example 223, (R)-(4-(naphthalen-2-yl)-6,7-dihydro-1H-imidazo[4,5-c]pyridin-5(4H)-yl)(2-(pyridin-2-yl)thiazol-5-yl)methanone]
> 5000 nM	CC(O)c1nc(Cl)c(C(=O)N2CCc3[nH]cnc3[C@@H]2c2ccc3ccccc3n2)o1 (single isomer, unassigned) [Example 135]
< 500 nM	Cn1nc(C(=O)N2CCc3[nH]cnc3[C@H]2c2cc3ccccc3cn2)c2ccccc21 [Example 360, (R)-(4-(isoquinolin-3-yl)-6,7-dihydro-1H-imidazo[4,5-c]pyridin-5(4H)-yl)(1-methyl-1H-indazol-3-yl)methanone]
< 500 nM	O=C(c1cnc(-c2ccccn2)o1)N1CCc2[nH]cnc2[C@H]1c1cc2ccccc2cn1 [Example 308, (R)-(4-(isoquinolin-3-yl)-6,7-dihydro-1H-imidazo[4,5-c]pyridin-5(4H)-yl)(2-(pyridin-2-yl)oxazol-5-yl)methanone]
1000 to 5000 nM	Cc1nc(-c2ccccn2)oc1C(=O)N1C[C@@H](C)c2[nH]cnc2[C@@H]1c1cc2ccccc2cn1 [Example 405, [(4S,7R)-4-(3-isoquinolyl)-7-methyl-1,4,6,7-tetrahydroimidazo[4,5-c]pyridin-5-yl]-[4-methyl-2-(2-pyridyl)oxazol-5-yl]methanone]
500 to 1000 nM	CC(C)(F)c1nnc(C(=O)N2CCc3[nH]cnc3[C@H]2c2cc3ccccc3nn2)o1 [Example 218, (S)-(4-(cinnolin-3-yl)-6,7-dihydro-1H-imidazo[4,5-c]pyridin-5(4H)-yl)(5-(2-fluoropropan-2-yl)-1,3,4-oxadiazol-2-yl)methanone]
